In series [1] the test system is A549 (non-small cell lung carcinoma) cells. Nature of the series: MTT cytotoxicity assay, A549 monolayer. Format: cell-based, human. To be noted: exposure time 96 h, mean ± SD. The procedure: (§1) CH1/PA-1 (ovarian teratocarcinoma), SW480 (colon carcinoma) and A549 (non-small cell lung cancer) cells were maintained as described in the reference. IMR-90 human fetal lung fibroblasts (from the European Collection of Authenticated Cell Cultures, Porton Down, Salisbury, UK) were cultured in Stable Cell^TM DMEM/F12 supplemented with 0.01 mg/mL human recombinant insulin (both purchased from Sigma-Aldrich) and 10% fetal bovine serum (FBS, BioWest, Nuaillé, France). Human colon carcinoma cell lines HCT116 and HT29 (both kindly provided by the Institute of Cancer Research, Department of Medicine I, Medical University of Vienna, Austria) were cultured in McCoy’s 5a medium supplemented with 4 mM L-glutamine (both purchased from Sigma-Aldrich) and 10% FBS. MCF-7 human breast adenocarcinoma cells (kindly provided by M. Ogris, Department of Pharmaceutical Sciences, University of Vienna, Austria) were maintained in DMEM (high glucose) supplemented with 4 mM L-glutamine, 0.1 mg/mL human insulin (all purchased from Sigma-Aldrich) and 10% FBS. All cell lines were grown as monolayers in 75 cm^2 culture flasks (CytoOne, Starlab, Hamburg, Germany) at 37 °C in a humidified atmosphere containing 5% CO2.
Exponentially growing cells were plated into 96-well microculture plates (CytoOne, tissue culture treated, Starlab, Hamburg, Germany) in densities of 1 × 10^3 CH1/PA-1, 2 × 10^3 SW480, 3 × 10^3 A549 and 7 × 10^3 IMR-90 cells per well (each in 100 µL). After a 24 h preincubation, drugs were added in serial dilution to give a final volume of 200 µL/well and exposed for 96 h. At the end of the exposure, the drug solutions were replaced by 100 µL RPMI 1640/MTT mixture (7:1 ratio). MTT (3-(4,5-dimethylthiazol-2-yl)-2,5-diphenyl-2H-tetrazolium bromide), (Acros Organics, Geel, Belgium) solution was prepared in phosphate-buffered saline (5 mg/mL) and mixed with RPMI1640 medium supplemented with 4 mM L-glutamine (both from Sigma-Aldrich) and 10% FBS. After 4 h incubation, the formazan crystals were solubilized in 150 µL of DMSO per well. Absorbance was measured at 550 nm (and at 690 nm as a reference) with a microplate reader (ELx808, BioTek, Winoosky, VT, USA) and Gen5^TM 3.08 software (BioTek). The 50% inhibitory concentrations (IC50) relative to untreated controls were interpolated from concentration-effect curves. At least three biologically and technically independent experiments were performed.

The next series has as its system MCF-7 cells. The experiment in a line: Resazurin assay, MCF-7 2D monolayer. Format: cell-based, human. To be noted: 96 h. As to the method:
as §1
(§2) For the resazurin assay in monolayer cultures, cells were seeded into 96-well microculture plates (CytoOne, tissue culture treated, Starlab, Hamburg, Germany) in densities of 2 × 10^3 HCT116, 2 × 10^3 HT29 and 4 × 10^3 MCF-7 cells per well (each in 100 µL). For tests in 3D cultures, spheroids were grown as described above. After 24 h (for monolayers) or 4 days (for spheroids) the test compounds in the appropriate medium were added in serial dilution to the plates to obtain a total volume of 200 µL/well. Wells without cells, containing medium and resazurin (Alfa Aesar, Thermo Fisher, Kandel, Germany) solution were used as blanks. After 96 h exposure 20 µL of the resazurin solution (440 µM) were added to each well, followed by a 4 h (2D) or 12 h (3D) incubation period. Resorufin fluorescence was quantified at 530 nm (and a reference wavelength of 620 nm) by using a microplate reader (Synergy HT, BioTek) with Gen5^TM 3.10 software (BioTek).

The subject of series [2] is MCF-7 multicellular tumor spheroids. The experiment in a line: Resazurin assay, MCF-7 3D spheroids. In kind it is cell-based, human. The conditions noted are these: 96 h; for IC50: spheroids. The procedure: as §1
For growing multicellular tumor spheroids, 400 HCT116, 400 HT29 or 800 MCF-7 cells per well were plated into round-bottom ultra-low attachment 96-well plates (Corning, Glendale, AZ, USA) in the media described above and incubated at 37 °C for 96 h. Spheroids were treated with 10 µM of the two most cytotoxic compounds 3 and 4 for another 96 h. The diameters of the spheroids were measured with Cell^F software under a CKX41 Olympus microscope before treatment and in constant daily intervals over the 96 h treatment period. For statistical analysis the t-test with Welsh’s correction was implemented in GraphPad Prism software (Version 6.01).
as §2

The nature of series [3]: Cyclic voltammetry in MeCN (W(IV) to W(V)). Format: physicochemical. To be noted: vs. NHE, scan rate 200 mV/s. The procedure: NMR spectra were recorded with a Bruker FT-NMR Avance III^TM 500 MHz spectrometer at 500.10 (^1H), and 125.75 MHz (^13C) using DMSO–d6. 2D-NMR measurements were recorded utilizing standard pulse programs COSY, HSQC and HMBC. The Microanalytical Laboratory of the University of Vienna performed the elemental analyses with a Eurovector EA 3000(2009) equipped with a high temperature pyrolysis furnace (HT, Hekatech, Germany, 2009). Elemental analyses’ samples were weighed (weights from 1–3 mg were used) on a Sartorius SEC 2 ultra-micro balance with ±0.1 µg resolution. Two NIST-certified reference materials were used for calibration: sulfanilamide (C6H8N2O2S) and BBOT (2,5-bis-(5-tert-butyl-2-benzoxazol-2-yl)-thiophenone, C26H26N2O2S). The limit of quantification (LOQ) was 0.05 w% for C, H, N and 0.02 w% for S. For samples without N and/or S, the content of these elements was determined and verified to be below the LOQ. X-ray diffraction analyses were carried out on a Bruker X8 APEX II CCD diffractometer at 100 K. ESI-MS were recorded on a Bruker AmaZon SL ion trap mass spectrometer (Bruker Daltonics GmbH). Data were obtained and processed with Compass 1.3 and Data Analysis 4.0 (Bruker Daltonics GmbH). Infrared spectra were attained on a Bruker Vertex 70 FT-IR-spectrometer with an ATR-unit (attenuated total reflection unit) in the range of 4000–600 cm^−1. Intensities of the reported bands are described with w for weak, m for medium and s for strong; broad signals are additionally specified with the letter b in front of these abbreviations. Cyclic voltammograms (CVs) were measured in a three-electrode cell using 2 mm diameter glassy carbon disk working electrode, a platinum auxiliary electrode and an Ag|Ag^+ reference electrode containing 0.1 M AgNO3. Measurements were carried out at room temperature using an EG&G PARC potentiostat/galvanostat 273A. The solutions were deoxygenized by purging a stream of argon for 3 min through the solution and the experiment was performed under an argon atmosphere. The potentials were measured in a freshly prepared solution of (n Bu4N)[BF4] (0.1 M) in acetonitrile using ferrocene (Fe(η^5-C5H5)2) (E1/2 = +0.72 V vs. NHE) as an internal standard and are quoted relative to the normal hydrogen electrode (NHE).
The electrochemical behavior of all complexes and the precursor Cp2WCl2 was studied by cyclic voltammetry with a scan rate of 200 mV/s, from −0.5 to +1.2 or +1.5 V. Measurements were performed in triplicate. Due to low water solubility of compounds 1–10 acetonitrile (MeCN) was utilized in order to reach the 2 mM concentration.

We go through 9 compounds from article PMC10384408, “Anticancer Tungstenocenes with a Diverse Set of (O,O–), (O,S–) and (O,N–) Chelates—A Detailed Biological Study Using an Improved Evaluation via 3D Spheroid Models” (Pharmaceutics, 2023).

Each structure is given as a SMILES string. “And” between values parts separate entries of the source, which are not always exact repeats. Identical values can stand only once.

On to `Cc1occc(=S)c1[O-].F[P-](F)(F)(F)(F)F.[W+4].c1cc[cH-]c1.c1cc[cH-]c1` [Compound 2, Bis(η^5-cyclopentadienyl)[2-methyl-3-(oxo-κO)-4-(1H)-pyran-4-thionato-κS]tungsten(IV) hexafluorophosphate], for which the IC50 in series [1] is 36 ± 6 µM; with MCF-7 cells it was 66 ± 12 µM; in series [2], greater than 200 µM. Besides, the “ratio 3D/2D of IC50 values, MCF-7” value in series [2] was greater than 3.0. In series [3], this compound gave an E1/2 of 1.047 V.

With `F[P-](F)(F)(F)(F)F.O=c1c([O-])c(-c2ccc(Cl)cc2)oc2ccccc12.[W+4].c1cc[cH-]c1.c1cc[cH-]c1` [Compound 3, Bis(η^5-cyclopentadienyl)[2-(4-chlorophenyl)-3-(oxo-κO)-4(H)-chromen-4-oato-κO]tungsten(IV) hexafluorophosphate], the values for the IC50 (in series [1]; in the series on MCF-7 cells; in series [2]) were 19 ± 3 µM, 6.5 ± 1.8 µM and 44 ± 1 µM, respectively. Moreover, in series [2], the “ratio 3D/2D of IC50 values, MCF-7” value is 6.8 and 7.0. In series [3], this compound returned an E1/2 of 1.059 V.

As to `F[P-](F)(F)(F)(F)F.[O-]c1c(-c2ccc(Cl)cc2)oc2ccccc2c1=S.[W+4].c1cc[cH-]c1.c1cc[cH-]c1` [Compound 4, Bis(η^5-cyclopentadienyl)[2-(4-chlorophenyl)-3-(oxo-κO)-4(H)-chromen-4-thionato-κS]tungsten(IV) hexafluorophosphate], the IC50 in series [1] was 6.3 ± 0.5 µM; with MCF-7 cells, 2.7 ± 0.7 µM; in series [2] it was 19 ± 2 µM. Besides, the “ratio 3D/2D of IC50 values, MCF-7” value in series [2] came to 7.0. The compound further gave an E1/2 in series [3] of 1.082 V.

As for `F[P-](F)(F)(F)(F)F.O=C([O-])c1ccccn1.[W+4].c1cc[cH-]c1.c1cc[cH-]c1` [Compound 5, Bis(η^5-cyclopentadienyl)[2-(carboxylato-κO)-pyridine-κN]tungsten(IV) hexafluorophosphate], the IC50 (in series [1]; in the series on MCF-7 cells; in series [2]) was greater than 200 µM each time. In series [3], the E1/2 is listed as 1.330 V.

As to `Cc1c([O-])c(=O)ccn1C.F[P-](F)(F)(F)(F)F.[W+4].c1cc[cH-]c1.c1cc[cH-]c1` [Compound 6, Bis(η^5-cyclopentadienyl)[1,2-dimethyl-3-(oxo-κO)-4-(1H)-pyridonato-κO]tungsten(IV) hexafluorophosphate], the IC50 in series [1] was 141 ± 36 µM; in the series with MCF-7 cells, 172 ± 45 µM; in series [2], greater than 200 µM. Also, the E1/2 in series [3] is on record as 0.885 V.

As to `Cc1cc(=O)c([O-])co1.F[P-](F)(F)(F)(F)F.[W+4].c1cc[cH-]c1.c1cc[cH-]c1` [Compound 7, Bis(η^5-cyclopentadienyl)[2-methyl-5-(oxo-κO)-4-(1H)-pyran-4-ato-κO] tungsten(IV) hexafluorophosphate], the IC50 (in series [1]; with MCF-7 cells; in series [2]) was greater than 200 µM each time. In series [3], this compound had an E1/2 of 1.071 V.

For `Cc1cc(=S)c([O-])co1.F[P-](F)(F)(F)(F)F.[W+4].c1cc[cH-]c1.c1cc[cH-]c1` [Compound 8, Bis(η^5-cyclopentadienyl)[2-methyl-5-(oxo-κO)-pyran-4-(1H)-thionato-κS] tungsten(IV) hexafluorophosphate], the 50% inhibitory concentration (IC50) in series [1] is greater than 200 µM; in the series with MCF-7 cells, 163 ± 32 µM; in series [2], greater than 200 µM. Besides, in series [3], the E1/2 came out at 1.080 V.

On to `CCc1occc(=O)c1[O-].F[P-](F)(F)(F)(F)F.[W+4].c1cc[cH-]c1.c1cc[cH-]c1` [Compound 9, Bis(η^5-cyclopentadienyl)[2-ethyl-3-(oxo-κO)-4-(1H)-pyran-4-ato-κO] tungsten(IV) hexafluorophosphate], for which the 50% inhibitory concentration (IC50) is greater than 200 µM in series [1], 147 ± 15 µM in the series on MCF-7 cells and greater than 200 µM in series [2]. Moreover, the E1/2 in series [3] stood at 1.038 V.

In the case of `CCc1occc(=S)c1[O-].F[P-](F)(F)(F)(F)F.[W+4].c1cc[cH-]c1.c1cc[cH-]c1` [Compound 10, Bis(η^5-cyclopentadienyl)[2-ethyl-3-(oxo-κO)-4-(1H)-pyran-4-thionato-κS] tungsten(IV) hexafluorophosphate], the IC50 is 53 ± 8 µM in series [1], 29 ± 4 µM with MCF-7 cells and greater than 200 µM in series [2]. The “ratio 3D/2D of IC50 values, MCF-7” value in series [2] is recorded as greater than 6.9. This compound also had an E1/2 in series [3] of 1.064 V.
